The text below walks through data of patent US20060069289A1, “Process for production 2-deoxyaldose compound” (MITSUI CHEMICALS, INC., priority 2003, published 2006).

The nature of the data set: Stability test of KDG to heat in water (remaining rate observed according to HPLC). It counts as physicochemical. Conditions: for Remaining Rate of KDG: water 10 times the amount of KDG. The protocol:
HPLC Analytic Conditions: ShodexAsahipack NH2-P50 (manufactured by Showa Denko K.K.), 50 mM sodium hydrogen phosphate aqueous solution, flow rate of 1 ml/min. and detection UV of 210 nm.
1.21 g (5.61 mmole) of KDG potassium salt was dissolved in 10 g of water (10 times the amount of KDG). pH of the solution was 7.3. Subsequently, when 64 mg (1.69 mmole: 0.3 equivalent) of granular sodium borohydride was added at 25° C., the reaction temperature increased to 33° C. Furthermore, pH after the completion of the reaction was 10.8. After the reaction was completed, when observed by HPLC, the reaction yield of metasaccharic acid was 94%. The reaction heat was observed as remarkable. […] In order to carry out the reaction with the good yield, stability to the heat of KDG was measured in the presence of water with 10 times the amount of KDG. (Table 1) (Table 2) (Table 3)
Here, the results of stability test to the KDG heat in the presence of water 10 times the amount of KDG are shown below. (Table 4)

Take `O=C(O)C(O)CC(O)C(O)CO` (stereo not drawn): the “Stability (in words)” value (generated product of the sodium borohydride reduction, aqueous reaction conditions) is on record as “stable”.

On to `O=C(O)C(=O)C[C@H](O)[C@H](O)CO` [KDG, 2-keto-3-deoxy-D-gluconic acid], for which the “Remaining Rate of KDG” value is 101% (pH 7.0, 25° C., 2 hours); 100% (pH 7.0, 25° C., 4 hours); 100% (pH 7.0, 25° C., 21 hours); 101% (pH 7.0, 25° C., 24 hours); 100% (pH 7.0, 50° C., 2 hours); 101% (pH 7.0, 50° C., 4 hours). Moreover, the “Remaining Rate of KDG” value by setting is: (pH 7.0, 50° C., 21 hours) 100%; (pH 7.0, 50° C., 24 hours) 99%; (pH 8.5, 25° C., 2 hours) 100%; (pH 8.5, 25° C., 4 hours) 99%; (pH 8.5, 25° C., 21 hours) 101%; (pH 8.5, 25° C., 24 hours) 100%. Also, the “Remaining Rate of KDG” value came to 101% (pH 8.5, 50° C., 2 hours); 100% (pH 8.5, 50° C., 4 hours); 99% (pH 8.5, 50° C., 21 hours); 98% (pH 8.5, 50° C., 24 hours); 102% (pH 10.5, 25° C., 2 hours); 101% (pH 10.5, 25° C., 4 hours). Moreover, the “Remaining Rate of KDG” value is, setting by setting: (pH 10.5, 25° C., 21 hours) 100%; (pH 10.5, 25° C., 24 hours) 101%; (pH 10.5, 50° C., 2 hours) 101%; (pH 10.5, 50° C., 4 hours) 99%; (pH 10.5, 50° C., 21 hours) 94%; (pH 10.5, 50° C., 24 hours) 93%. Further, the “Remaining Rate of KDG” value (pH 12.0, 4° C., 2 hours) was determined as 101%; the “Remaining Rate of KDG” value (pH 12.0, 4° C., 4 hours) is listed as 99%; the “Remaining Rate of KDG” value (pH 12.0, 4° C., 21 hours) stood at 100%; the “Remaining Rate of KDG” value (pH 12.0, 4° C., 24 hours) is on record as 98%; the “Remaining Rate of KDG” value (pH 12.0, 25° C., 2 hours) amounted to 99%; the “Remaining Rate of KDG” value (pH 12.0, 25° C., 4 hours) is reported as 95%. The “Remaining Rate of KDG” value is on record as 84% (pH 12.0, 25° C., 21 hours); 79% (pH 12.0, 25° C., 24 hours); 61% (pH 12.0, 50° C., 2 hours); 56% (pH 12.0, 50° C., 4 hours). The “Stability to heat (in words)” value (pH 12.0, 50° C.) is listed as “remarkably decomposed”.
